Measured values reported in ChEMBL document CHEMBL1201862, “PubChem BioAssay data set” (2004).
Calls of active or inactive are those of the source.

Legend:
Insulin-degrading enzyme [1] = biological target: T1, Insulin-degrading enzyme (Homo sapiens, UniProt P14735); assay: activators of endogenous IDE in HEK cells, dose response, cell-based, fluorescence polarization (AID 588439); assay type: functional
T1 sequence (P14735 whole entry): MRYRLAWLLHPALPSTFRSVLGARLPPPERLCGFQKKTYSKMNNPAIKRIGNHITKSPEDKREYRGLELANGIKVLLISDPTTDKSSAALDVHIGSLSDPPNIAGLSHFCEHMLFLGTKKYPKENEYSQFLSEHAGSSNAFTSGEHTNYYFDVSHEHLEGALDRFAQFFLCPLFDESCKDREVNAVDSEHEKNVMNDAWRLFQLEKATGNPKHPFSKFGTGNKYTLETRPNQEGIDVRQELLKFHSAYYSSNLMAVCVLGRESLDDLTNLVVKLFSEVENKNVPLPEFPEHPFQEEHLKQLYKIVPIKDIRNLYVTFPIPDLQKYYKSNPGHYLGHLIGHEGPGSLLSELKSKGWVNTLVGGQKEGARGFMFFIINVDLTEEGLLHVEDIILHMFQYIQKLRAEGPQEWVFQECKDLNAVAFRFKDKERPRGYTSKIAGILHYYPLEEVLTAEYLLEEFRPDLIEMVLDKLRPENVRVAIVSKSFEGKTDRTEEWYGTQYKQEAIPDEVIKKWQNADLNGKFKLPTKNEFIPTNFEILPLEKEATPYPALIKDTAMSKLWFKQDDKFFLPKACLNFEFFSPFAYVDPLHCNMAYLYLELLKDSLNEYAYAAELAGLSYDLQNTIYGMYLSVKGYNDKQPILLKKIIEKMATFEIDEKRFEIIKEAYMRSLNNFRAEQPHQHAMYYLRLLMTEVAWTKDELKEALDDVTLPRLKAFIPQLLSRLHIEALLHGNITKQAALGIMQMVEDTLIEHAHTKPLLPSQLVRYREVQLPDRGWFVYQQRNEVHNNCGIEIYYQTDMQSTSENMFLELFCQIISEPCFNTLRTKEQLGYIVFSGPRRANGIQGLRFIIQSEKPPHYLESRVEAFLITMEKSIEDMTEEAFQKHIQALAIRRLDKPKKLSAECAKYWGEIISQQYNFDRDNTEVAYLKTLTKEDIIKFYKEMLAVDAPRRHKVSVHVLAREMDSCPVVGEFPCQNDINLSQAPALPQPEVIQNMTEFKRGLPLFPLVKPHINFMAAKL

HEK293 [2] = assay: optical interference in Abeta FP readout, dose response, artefact control for IDE activator project, biochemical, fluorescence polarization (AID 588442); assay type: functional, cell-based; settings: Homo sapiens
Insulin-degrading enzyme [3] = biological target: T1, Insulin-degrading enzyme; assay: activators of recombinant IDE enzyme, dose response, counter-screen for IDE activator project, biochemical, fluorescence polarization (AID 588681)
HEK293 [4] = assay: HEK cell cytotoxicity by LDH release, dose response, cytotoxicity control for IDE activator project, fluorescence, HEK cells (AID 588440); assay type: functional, cell-based; settings: Homo sapiens;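 note: cytotoxicity by LDH release measuring loss of membrane integrity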
[5] = nonselective inhibitors of cellular cAMP signaling, dose response, counter-screen for MC4R biased antagonist project, cell-based, TR-FRET cAMP detection (AID 602305); assay type: functional;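 note: U2OS cells stimulated with forskolin near its EC80 as the cAMP inducer; potency is for inhibition of forskolin-stimulated cAMP signaling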
Melanocortin receptor 4 = Melanocortin receptor 4 (Homo sapiens, UniProt P32245); assay: MC4R antagonist potency on cAMP, dose response, cell-based, TR-FRET, biased antagonists (AID 602298); assay type: functional;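 note: antagonist potency against agonist-stimulated cAMP production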
Melanocortin receptor 4, sequence (P32245 whole entry): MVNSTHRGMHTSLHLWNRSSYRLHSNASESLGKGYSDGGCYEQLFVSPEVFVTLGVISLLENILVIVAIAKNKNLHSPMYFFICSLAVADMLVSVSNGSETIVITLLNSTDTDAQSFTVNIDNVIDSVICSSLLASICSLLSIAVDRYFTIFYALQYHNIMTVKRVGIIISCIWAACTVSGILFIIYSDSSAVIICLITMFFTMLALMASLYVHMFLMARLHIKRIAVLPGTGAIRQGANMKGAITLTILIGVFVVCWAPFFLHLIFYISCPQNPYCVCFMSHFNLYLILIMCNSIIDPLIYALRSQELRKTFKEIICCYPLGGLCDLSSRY

[6] = biological target: T2, Apoptotic protease-activating factor 1 (Homo sapiens, UniProt O14727); assay type: functional
T2 sequence (O14727 whole entry): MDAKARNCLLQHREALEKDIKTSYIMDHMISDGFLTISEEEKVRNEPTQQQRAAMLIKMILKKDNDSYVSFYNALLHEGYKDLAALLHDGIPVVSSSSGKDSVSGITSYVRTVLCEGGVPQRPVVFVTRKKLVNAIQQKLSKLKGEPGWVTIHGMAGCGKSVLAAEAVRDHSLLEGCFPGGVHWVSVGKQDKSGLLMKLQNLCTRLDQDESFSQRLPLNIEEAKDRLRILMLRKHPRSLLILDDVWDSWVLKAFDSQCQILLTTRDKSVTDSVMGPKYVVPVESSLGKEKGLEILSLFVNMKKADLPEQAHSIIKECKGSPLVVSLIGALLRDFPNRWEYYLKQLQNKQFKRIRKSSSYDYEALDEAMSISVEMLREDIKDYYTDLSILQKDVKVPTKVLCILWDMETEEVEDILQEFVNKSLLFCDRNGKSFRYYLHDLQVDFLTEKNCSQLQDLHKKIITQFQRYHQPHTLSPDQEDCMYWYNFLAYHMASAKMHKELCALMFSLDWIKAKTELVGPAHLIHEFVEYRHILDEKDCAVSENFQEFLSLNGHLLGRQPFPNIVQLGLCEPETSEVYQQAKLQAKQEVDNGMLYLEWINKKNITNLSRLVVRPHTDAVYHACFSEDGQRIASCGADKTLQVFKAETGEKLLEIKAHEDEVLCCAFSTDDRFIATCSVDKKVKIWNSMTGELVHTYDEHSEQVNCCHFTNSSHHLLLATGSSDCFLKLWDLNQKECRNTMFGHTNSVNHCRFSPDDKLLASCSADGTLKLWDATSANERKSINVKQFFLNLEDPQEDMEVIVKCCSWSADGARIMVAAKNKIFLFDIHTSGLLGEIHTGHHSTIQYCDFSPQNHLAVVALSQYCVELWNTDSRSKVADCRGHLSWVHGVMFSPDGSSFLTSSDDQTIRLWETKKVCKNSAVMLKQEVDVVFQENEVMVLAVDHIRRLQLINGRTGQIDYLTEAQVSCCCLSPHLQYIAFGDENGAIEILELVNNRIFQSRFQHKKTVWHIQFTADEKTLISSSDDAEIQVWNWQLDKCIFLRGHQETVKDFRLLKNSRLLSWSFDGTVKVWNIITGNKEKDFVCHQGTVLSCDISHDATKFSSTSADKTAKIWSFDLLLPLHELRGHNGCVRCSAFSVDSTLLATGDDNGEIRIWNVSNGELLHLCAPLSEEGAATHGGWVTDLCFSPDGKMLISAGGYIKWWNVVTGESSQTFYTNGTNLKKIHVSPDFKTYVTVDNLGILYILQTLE

Bcl-2-related protein A1 = biological target: T3, Bcl-2-related protein A1 (Mus musculus, UniProt Q07440); assay type: functional;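 note: confirmatory dose–response counterscreen on Bfl-1, used to check hits from a UBC13 polyubiquitin inhibitor campaign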
T3 sequence (Q07440 whole entry): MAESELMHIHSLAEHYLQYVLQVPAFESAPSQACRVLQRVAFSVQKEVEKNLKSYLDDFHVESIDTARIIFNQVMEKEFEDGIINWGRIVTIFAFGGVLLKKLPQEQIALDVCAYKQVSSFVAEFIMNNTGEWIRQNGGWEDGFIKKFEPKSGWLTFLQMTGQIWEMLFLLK

[7] = biological target: T4, Ubiquitin-conjugating enzyme E2 N (Homo sapiens, UniProt P61088); assay type: functional
T4 sequence (P61088 whole entry): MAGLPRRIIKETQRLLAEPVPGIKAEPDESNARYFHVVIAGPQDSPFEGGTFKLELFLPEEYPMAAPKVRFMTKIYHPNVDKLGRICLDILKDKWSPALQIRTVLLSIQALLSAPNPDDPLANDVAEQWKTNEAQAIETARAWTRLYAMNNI

[8] = biological target: T4, Ubiquitin-conjugating enzyme E2 N; assay type: functional; remark: listed apart in the source
[9] = biological target: 26S proteasome non-ATPase regulatory subunit 14 (Homo sapiens, UniProt O00487); assay: inhibition of proteasome subunit RPN11 – biochemical, fluorescence polarization, uHTS hits, confirmation (AID 602368); assay type: functional
26S proteasome non-ATPase regulatory subunit 14, sequence (O00487 whole entry): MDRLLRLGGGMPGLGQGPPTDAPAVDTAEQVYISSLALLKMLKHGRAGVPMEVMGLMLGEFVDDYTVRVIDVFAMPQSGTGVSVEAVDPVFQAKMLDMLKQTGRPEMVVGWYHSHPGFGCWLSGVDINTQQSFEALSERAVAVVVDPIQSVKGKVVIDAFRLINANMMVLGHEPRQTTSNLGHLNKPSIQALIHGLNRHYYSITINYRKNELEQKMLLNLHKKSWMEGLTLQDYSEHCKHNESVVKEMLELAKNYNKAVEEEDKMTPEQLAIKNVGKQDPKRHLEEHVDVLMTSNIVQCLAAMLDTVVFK

Cytochrome P450 1A2 = biological target: T5, Cytochrome P450 1A2 (Homo sapiens, UniProt P05177);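 note: PubChem cytochrome P450 panel assay, CYP1A2 panel member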
T5 sequence (P05177 whole entry): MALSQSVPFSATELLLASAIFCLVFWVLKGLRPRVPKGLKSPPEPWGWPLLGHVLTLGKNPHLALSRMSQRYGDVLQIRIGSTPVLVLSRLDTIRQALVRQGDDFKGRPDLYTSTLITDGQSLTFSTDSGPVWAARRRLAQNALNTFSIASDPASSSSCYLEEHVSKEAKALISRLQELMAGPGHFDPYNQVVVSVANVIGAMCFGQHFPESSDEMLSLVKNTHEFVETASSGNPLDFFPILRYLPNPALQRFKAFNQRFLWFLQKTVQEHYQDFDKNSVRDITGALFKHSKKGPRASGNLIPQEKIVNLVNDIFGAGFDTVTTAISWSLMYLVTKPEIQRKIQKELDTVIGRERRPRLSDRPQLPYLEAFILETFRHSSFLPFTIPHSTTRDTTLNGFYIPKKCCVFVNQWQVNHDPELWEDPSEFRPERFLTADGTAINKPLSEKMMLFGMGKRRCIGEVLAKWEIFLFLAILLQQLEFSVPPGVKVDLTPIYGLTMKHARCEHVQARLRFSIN

Prothrombin = Prothrombin (Bos taurus, UniProt P00735); assay: thrombin inhibition, dose response, biochemical, fluorescence polarization, uHTS hits (AID 602369); assay type: functional
Cytochrome P450 2D6 = Cytochrome P450 2D6 (Homo sapiens, UniProt P10635);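 note: CYP2D6 member of a cytochrome P450 panel assay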
Cytochrome P450 2D6, sequence (P10635 whole entry): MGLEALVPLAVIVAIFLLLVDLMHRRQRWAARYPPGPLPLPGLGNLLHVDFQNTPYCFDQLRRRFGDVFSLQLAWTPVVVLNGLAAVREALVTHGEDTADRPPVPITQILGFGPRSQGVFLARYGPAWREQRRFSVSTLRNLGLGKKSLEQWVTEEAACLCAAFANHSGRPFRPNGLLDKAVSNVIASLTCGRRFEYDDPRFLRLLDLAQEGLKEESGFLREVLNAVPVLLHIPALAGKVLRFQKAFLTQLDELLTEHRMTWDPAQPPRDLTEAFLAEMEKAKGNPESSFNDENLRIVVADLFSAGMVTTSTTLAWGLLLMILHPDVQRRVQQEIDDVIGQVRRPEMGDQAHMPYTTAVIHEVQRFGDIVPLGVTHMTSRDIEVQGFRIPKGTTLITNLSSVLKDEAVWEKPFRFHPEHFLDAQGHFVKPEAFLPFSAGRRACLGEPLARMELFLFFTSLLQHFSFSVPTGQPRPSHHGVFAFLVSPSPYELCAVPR

[10] = biological target: 72 kDa type IV collagenase (Homo sapiens, UniProt P08253); assay: Dose Response validation of uHTS RPN11 inhibitor hits using a MMP-2 Fluorescence assay.; assay type: functional
72 kDa type IV collagenase, sequence (P08253 whole entry): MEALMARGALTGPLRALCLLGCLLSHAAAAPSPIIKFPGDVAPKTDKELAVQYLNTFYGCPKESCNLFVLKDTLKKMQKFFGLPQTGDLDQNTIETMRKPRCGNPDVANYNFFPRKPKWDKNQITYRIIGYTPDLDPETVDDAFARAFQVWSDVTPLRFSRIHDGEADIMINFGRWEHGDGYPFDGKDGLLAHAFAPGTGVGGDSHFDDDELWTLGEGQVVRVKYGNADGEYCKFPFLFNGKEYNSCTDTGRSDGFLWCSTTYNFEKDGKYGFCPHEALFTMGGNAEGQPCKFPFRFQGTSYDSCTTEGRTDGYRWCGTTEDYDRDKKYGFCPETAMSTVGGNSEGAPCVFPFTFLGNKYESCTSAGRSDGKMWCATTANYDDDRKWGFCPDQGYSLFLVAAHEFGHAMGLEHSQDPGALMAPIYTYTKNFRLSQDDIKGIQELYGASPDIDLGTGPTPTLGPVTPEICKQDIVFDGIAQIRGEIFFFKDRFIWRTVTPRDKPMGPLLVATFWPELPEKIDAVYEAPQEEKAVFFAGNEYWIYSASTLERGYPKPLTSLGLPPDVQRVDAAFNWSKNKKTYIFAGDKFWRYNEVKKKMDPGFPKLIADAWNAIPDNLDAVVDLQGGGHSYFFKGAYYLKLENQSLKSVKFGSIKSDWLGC

For `O=C(NCCSc1ccc(Br)cc1)c1ccc2[nH]cnc2c1`, the EC50 (Insulin-degrading enzyme [1]) was > 54.7 µM (inactive), the EC50 (HEK293 [2]) was > 56 µM (inactive) and the EC50 (Insulin-degrading enzyme [3]) was > 54.7 µM (inactive). The IC50 (HEK293 [4]) was > 89.3 µM (inactive).

For `CCOC(=O)c1c(NC(=O)C(C)OC(=O)C2=COCCO2)sc2c1CCCC2` (centres undefined), the IC50 [5] was > 64.6 µM (inactive) and the IC50 (Melanocortin receptor 4) was > 7.18 µM (active).

For `C#CCOCCOCCOCCNc1nc(N2CCN(C(=O)CCCCCCCCCCNC(=O)Cn3cc(CCCCCN)nn3)CC2)nc(N2CCN(C(=O)CCCCCCCCCCNC(=O)[C@@H]([C@H](C)O)n3cc(C)nn3)CC2)n1`, the EC50 (Insulin-degrading enzyme [1]) was > 6.07 µM (active), the EC50 (HEK293 [2]) was > 54.7 µM (inactive) and the IC50 [6] was 36.7 µM (active). For the same molecule, the IC50 (Bcl-2-related protein A1) was > 20 µM (inactive), the IC50 [7] was 10.7 µM (active) and the EC50 (Insulin-degrading enzyme [3]) was > 54.7 µM (inactive). For the same molecule, the IC50 [8] was 6.62 µM (active) and the IC50 (HEK293 [4]) was 17.8 µM (inactive).

With `CN1/C(=C\C(=O)COC(=O)Cn2nnc(-c3ccccc3)n2)C(C)(C)c2ccccc21` the IC50 [9] was 34.5 µM (active), the AC50 (Cytochrome P450 1A2) was 1.58 µM (inconclusive) and the IC50 (Prothrombin) was 51.6 µM (active). For the same molecule, the AC50 (Cytochrome P450 2D6) was 31.6 µM (inconclusive) and the IC50 [10] was > 100 µM (inactive).
